Laboratory results from patent US12685312B2, “Sulfonamide apyrase inhibitors” (Texas Crop Science, Inc., priority 2022, dated 2026).

Tests used:
[1] = test system: Asian Soya Rust (Phakopsora pachyrhizi) on soybean; experiment: Greenhouse crop test (Method 3), Asian Soya Rust on soybean; format: in vivo; details: Proline 0.15 L/ha
Protocol: (§1) Method 3: Greenhouse Crop Tests
(§2) In this method, exemplary compounds were evaluated for their ability to control Zymoseptoria tritici on wheat, Botrytis cinerea on tomatoes, Asian Soya Rust (Phakopsora pachyrhizi) on soybean, and Brown Rust (Puccinia recondita) on wheat, in a controlled greenhouse environment in combination with one of four fungicides, Amistar, Imtrex, Proline or Balaya. In these studies, soybean cultivar Siverka, tomato (Money maker) and wheat plants (JB Diego) were used. […] Each plant was evaluated once the disease symptoms were fully expressed between seven to twenty days (depending on the pathogen) for % control of the disease. […] Also, each commercial fungicide was tested on its own as a part of each treatment, this being benchmark against which the experimental compounds were evaluated. […]

apyrase = experiment: Screen for apyrase inhibitors (Method 1, in vitro phosphate-release absorbance assay); format: biochemical; details: inhibitor conc at 1 mM stock, 1 hr room temperature, absorbance 630 nm; rounded average of two assay results
How it was run: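 Phosphate-release colorimetric assay (Windsor method) in 60 mM Hepes, 3 mM MgCl2, 3 mM CaCl2, 3 mM ATP, pH 6.5, with compound or DMSO control added. Released phosphate developed with ammonium molybdate and ascorbic acid/TCA, then stopped with citrate/acetic acid.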

[2] = test system: plant pathogenic fungi (Zymoseptoria tritici strains, Microdochium nivale); experiment: In vitro combination assay (Method 2), overall comparison with Roux Compound 13; format: cell-based; details: azoxystrobin, fluxapyroxad, desthio prothioconazole; three fungal strains
Protocol: Method 2: In Vitro Assessment of Combination Activity
Selected compounds were assessed in combination with fungicides against a range of commercially important plant pathogenic fungi.
The test was conducted as follows. A fungicide was applied to a fungal plant pathogen at a rate slightly below that at which it gave any control, in combination with a suitable dose of the test compound. The test compound was recorded as active if control of the pathogen was observed.
In more detail, the test was conducted as follows. For each combination of fungicide, pathogen and test compound, the following wells were used. Well 1 contained a fungal pathogen growing on agar, and a fungicide at a rate just below that at which it gave any control of the pathogen. Well 2 was the same as Well 1, except that the test compound was also added at Rate 1. Well 3 was the same as Well 2, except that the test compound was added at Rate 2, where Rate 2 was higher than Rate 1. Finally, as a benchmark, Well 4 was the same as Well 1, except that it contained the fungicide at a higher rate, at which it gave partial control of the pathogen. Each of the Wells 1 to 4 were run in duplicate, giving a total of 8 wells for each combination of fungicide, pathogen and test compound. For each well, after a suitable period of incubation, a visual assessment of the % control of the pathogen by the fungicide was made.
The following fungicides were used in this assay: azoxystrobin, fluxapyroxad, and desthio prothioconazole. The following fungal pathogens were used in this assay: First, a strain of Zymoseptoria tritici with a reduced susceptibility to strobilurin fungicides; second a strain of Zymoseptoria tritici with a reduced susceptibility to SDHI fungicides (i.e., those that inhibit succinate dehydrogenase); and third, Microdochium nivale.

[3] = test system: Zymoseptoria tritici on wheat; experiment: Greenhouse crop test (Method 3), Zymoseptoria tritici on wheat; format: in vivo; details: for enhancement of Imtrex over Imtrex alone: Imtrex 0.02 L/ha
Protocol: as §1
In this method, exemplary compounds were evaluated for their ability to control Zymoseptoria tritici on wheat, Botrytis cinerea on tomatoes, Asian Soya Rust (Phakopsora pachyrhizi) on soybean, and Brown Rust (Puccinia recondita) on wheat, in a controlled greenhouse environment in combination with one of four fungicides, Amistar, Imtrex, Proline or Balaya. In these studies, soybean cultivar Siverka, tomato (Money maker) and wheat plants (JB Diego) were used. Seeds were sown in 9 cm diameter pots to a depth of 1 to 2 cm using Petersfield potting compost (75% medium grade peat, 12% screened sterilized loam, 3% medium grade vermiculite, 10% grit (5 mm screened, lime free), 1.5 kg PG mix per m3, lime to pH5.5-6.0 and wetting agent (Vitax Ultrawet 200 ml per m3) and germinated/grown at 23 C under a 16 h day/8 h night light regime. Plants were treated two to three weeks after sowing when they were at the BBCH 11 growth stage (first pair of true leaves (unifoliate) unfolded. A track sprayer was used to treat the plants with the mixture of commercial fungicide and test compound using a water volume of 200 L/ha. Plants were inoculated with the appropriate fungi (pathogen) 24 hours after treatment. Fungal pathogens used were Botrytis cinerea (Grey mold on tomato plants), Zymoseptoria tritici (Septoria leaf blotch on wheat plants), Puccinia triticina (Brown rust on wheat plants) and Phakopsora pachyrhizi (Asian soy rust on soybean plants). Four replicates were used for each combination of fungicide, pathogen and test compound. Each plant was evaluated once the disease symptoms were fully expressed between seven to twenty days (depending on the pathogen) for % control of the disease. Appropriate controls were used for all experiments, including an ‘inoculation check’ wherein plants were inoculated with their specific pathogen to assess disease levels. Also, each commercial fungicide was tested on its own as a part of each treatment, this being benchmark against which the experimental compounds were evaluated. […] That is, the present compounds, although not fungicidal by themselves, enhance the activity of fungicides, thus the enhancer compounds work synergistically in combination with fungicides to control disease.
In these studies the fungicide was applied at the following rates

[4] = test system: Botrytis cinerea on tomatoes; experiment: Greenhouse crop test (Method 3), Botrytis cinerea on tomatoes; format: in vivo; details: Botrytis cinerea on tomato, Imtrex 0.005 L/ha
Protocol: as §1
In this method, exemplary compounds were evaluated for their ability to control Zymoseptoria tritici on wheat, Botrytis cinerea on tomatoes, Asian Soya Rust (Phakopsora pachyrhizi) on soybean, and Brown Rust (Puccinia recondita) on wheat, in a controlled greenhouse environment in combination with one of four fungicides, Amistar, Imtrex, Proline or Balaya. In these studies, soybean cultivar Siverka, tomato (Money maker) and wheat plants (JB Diego) were used. Seeds were sown in 9 cm diameter pots to a depth of 1 to 2 cm using Petersfield potting compost (75% medium grade peat, 12% screened sterilized loam, 3% medium grade vermiculite, 10% grit (5 mm screened, lime free), 1.5 kg PG mix per m3, lime to pH5.5-6.0 and wetting agent (Vitax Ultrawet 200 ml per m3) and germinated/grown at 23 C under a 16 h day/8 h night light regime. Plants were treated two to three weeks after sowing when they were at the BBCH 11 growth stage (first pair of true leaves (unifoliate) unfolded. A track sprayer was used to treat the plants with the mixture of commercial fungicide and test compound using a water volume of 200 L/ha. Plants were inoculated with the appropriate fungi (pathogen) 24 hours after treatment. Fungal pathogens used were Botrytis cinerea (Grey mold on tomato plants), Zymoseptoria tritici (Septoria leaf blotch on wheat plants), Puccinia triticina (Brown rust on wheat plants) and Phakopsora pachyrhizi (Asian soy rust on soybean plants). Four replicates were used for each combination of fungicide, pathogen and test compound. Each plant was evaluated once the disease symptoms were fully expressed between seven to twenty days (depending on the pathogen) for % control of the disease. Appropriate controls were used for all experiments, including an ‘inoculation check’ wherein plants were inoculated with their specific pathogen to assess disease levels. Also, each commercial fungicide was tested on its own as a part of each treatment, this being benchmark against which the experimental compounds were evaluated. […]

[5] = test system: Brown Rust (Puccinia recondita) on wheat; experiment: Greenhouse crop test (Method 3), Brown Rust on wheat; format: in vivo; details: Imtrex 0.45 L/ha
Protocol: as §1, §2

Structure (SMILES)	enhancement of the activity of Proline [1]	% Inhibition of Apyrase (apyrase)	enhancer activity in the combination assay compared with Roux Compound 13 [2]	enhancement of Imtrex over Imtrex alone [3]	enhancement in combination with Imtrex over Imtrex alone [4]	enhancement of Balaya ([3]; Balaya 0.0015 L/ha)	additional Brown Rust control benefit in combination with Imtrex over Imtrex alone [5]
O=C1CSc2ccc(C(=O)Nc3cccc(S(=O)(=O)Nc4ccc(Br)cc4)c3)cc2N1 [I-198, N-(3-(N-(4-bromophenyl)sulfamoyl)phenyl)-3-oxo-3,4-dihydro-2H-benzo[b][1,4]thiazine-6-carboxamide]	over 90%	79%	superior enhancer activity than Roux Compound 13	about 30%			
O=C(Nc1ccc2c(c1)OCO2)c1ccccc1NS(=O)(=O)c1cccc(C(F)(F)F)c1 [I-213, N-(benzo[d][1,3]dioxol-5-yl)-2-((3-(trifluoromethyl)phenyl)sulfonamido) benzamide]		71%	superior enhancer activity than Roux Compound 13		about 30%		
O=C(Nc1ccc(Br)cc1)c1cccc(S(=O)(=O)Nc2ccc(F)cc2)c1 [I-222, N-(4-bromophenyl)-3-(N-(4-fluorophenyl)sulfamoyl)benzamide]	greater than 60%	71%	superior enhancer activity than Roux Compound 13				
Cc1ccc(C(=O)Nc2ccccc2S(=O)(=O)Nc2ccccc2)cc1F [I-236, 3-fluoro-4-methyl-N-(2-(N-phenylsulfamoyl)phenyl)benzamide]		30%	superior enhancer activity than Roux Compound 13		about 30%		
O=C(Nc1cccc(-c2ccn[nH]2)c1)c1cccc(S(=O)(=O)Nc2ccc(Br)cc2)c1 [I-239, N-(3-(1H-pyrazol-5-yl)phenyl)-3-(N-(4-bromophenyl)sulfamoyl)benzamide]		73%	superior enhancer activity than Roux Compound 13	about 30%			
NS(=O)(=O)c1cccc(NC(=O)c2ccc(S(=O)(=O)Nc3ccc(Cl)cc3)cc2)c1 [I-387, 4-(N-(4-chlorophenyl)sulfamoyl)-N-(3-sulfamoylphenyl)benzamide]		65%			about 30%		
O=C(Nc1ccc2c(c1)OCO2)c1ccc(S(=O)(=O)Nc2ccccc2Cl)cc1 [I-388, N-(benzo[d][1,3]dioxol-5-yl)-4-(N-(2-chlorophenyl)sulfamoyl)benzamide]		63%				greater than 45%	
Cc1ccc(NC(=O)c2cccc(S(=O)(=O)Nc3cccc(Cl)c3)c2)nc1 [I-595, 3-(N-(3-chlorophenyl)sulfamoyl)-N-(5-methylpyridin-2-yl)benzamide]		36%					greater than 40%
O=C(Nc1ccccc1S(=O)(=O)N1CCCC1)c1cccc(C(F)(F)F)c1 [I-826, N-(2-(pyrrolidin-1-ylsulfonyl)phenyl)-3-(trifluoromethyl)benzamide]		40%					greater than 50%
